Values quoted from earlier work, collected in patent publication US12280046B2, “Melanocortin subtype-2 receptor (MC2R) antagonist for the treatment of disease” (Crinetics Pharmaceuticals, Inc., priority 2021, dated 2025).
Starred links: 1 amine or outer side, 2 acyl side, 3 side chain; linkers in the order of their positions; H or OH if unused. Non-standard residues stand in square brackets, D forms with d. Residues, ends and D or L forms follow the SMILES beside them. Groups on a side chain read outwards from the residue. *: point of attachment. Ethylenediamine = C(CN[*:2])N[*:1]; Hyp = O=C(O)[C@@H]1C[C@@H](O)CN1; Phg = N[C@H](C(=O)O)c1ccccc1; CO = O=C([*:1])[*:2]; Bn = c1ccc(C*)cc1

Key:
[1] = assumption for full suppression curve; cited from earlier work
[2] = Phase 3 trial; cited from earlier work

| Structure (SMILES) | half-life [1] [h] | patients achieving normalization of urinary free cortisol [2] | patients with a hyperglycemia-related adverse event [2] [%] |
| --- | --- | --- | --- |
| C[C@]12CCC(=O)C=C1CC[C@@H]1[C@@H]2[C@@H](O)C[C@@]2(C)[C@H]1CC[C@]2(O)C(=O)CO [cortisol] | 1.1 ± 0.3 | – | – |
| NCCCC[C@@H]1NC(=O)[C@@H](Cc2c[nH]c3ccccc23)NC(=O)[C@H](c2ccccc2)NC(=O)[C@@H]2C[C@@H](OC(=O)NCCN)CN2C(=O)[C@H](Cc2ccccc2)NC(=O)[C@H](Cc2ccc(OCc3ccccc3)cc2)NC1=O [pasireotide] (cyclo([Hyp]([CO-Ethylenediamine])[Phg][dW]KY(Bn)F)) | – | 15-26% | 73 |
